This note sets out measurements from PubChem BioAssay (NCI).

Holding throughout (experiment): NCI tumour cell line growth inhibition, 48 h
The test system of test [1] is M19-MEL melanoma.
The test system of test [2] is HCC-2998 colon.
Test [3] deals with SN12C renal.
Test [4] has as its system SNB-75 CNS.
Test [5] deals with SNB-19 CNS.
The subject of test [6] is NCI-H522 lung.
In test [7] the test system is HCT-116 colon.
The subject of test [8] is UACC-62 melanoma.
The subject of test [9] is KM20L2 colon.
In test [10] the test system is SK-MEL-2 melanoma.

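Five compound concentrations were applied to cells in 96-well plates for 48 hours; endpoints were derived by simple linear interpolation of the resulting dose-response curve. TGI marks complete inhibition of growth.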

Consider `O=C(COc1ccccc1Cl)N1N=C(c2ccccc2)CC1(O)c1ccccc1` (stereo not given), for which the TGI in [1] is 41.6 µM; in test [2], 33.6 µM; in test [3], 25.6 µM; in [4], greater than 100 µM; in [5], 45.4 µM; in test [6], greater than 100 µM. Besides, the TGI in test [7] was determined as 51.3 µM; in test [8], 33.5 µM; in test [9], 29.6 µM; in test [10], 36.8 µM.
